Measured values reported in patent US11033604B2, “Reagents and methods for treating bacterial infection” (priority 2018, dated 2021).
Non-standard residues stand in square brackets, D forms with d. No end group written: not given here.

What was measured:
[1] = tested on: S. aureus SH1000 WT biofilms; assay: TEM of biofilm extracellular fibrils; assay type: cell-based, Staphylococcus aureus; conditions: LB medium, 80 μM
Method: FIG. 2. S. aureus biofilm structures become less robust when grown in the presence of designed peptide inhibitors. (A) S. aureus MN8+mCherry™ biofilms were grown on glass substrates for 24 hours and then cells were washed and fixed. Addition of peptide inhibitors (80 μM) reduced adhesion to the slide, causing cells to detach during the wash step. Images are representative of duplicate wells. (B) In S. aureus SH1000 WT biofilms grown in regular LB medium, PSM amyloid fibrils are visible as deposits in spaces between cells (left). Upon addition of the designed peptide AP90 (80 μM), no extracellular fibril deposits were observed (right).
To further investigate the ability of designed peptides to inhibit PSM amyloid formation, fluorescent (mCherry™ ) MN8 biofilms were grown in culture plates with glass bottom wells. After 24 hours at 37° C. the biofilms were gently rinsed with pipetted saline to remove unattached biomass and the remaining attached cells were fixed and imaged. […] These qualitative results are in good agreement with the quantitative results obtained for amyloid inhibition in FIG. 1B. Addition of anti-α-sheet peptides triggered a significant reduction in PSM amyloid formation as measured by ThT fluorescence and also served to weaken the S. aureus biofilms by reducing the PSM amyloid fibril content of the extracellular matrix. […]

FapC = biological target: T1, FapC (Pseudomonas aeruginosa, UniProt Q9I2F0); assay: FapC in vitro ThT aggregation assay; assay type: biochemical, P. aeruginosa; conditions: 0.2 mg/mL FapC, 37° C.
T1 sequence (Q9I2F0 25-340): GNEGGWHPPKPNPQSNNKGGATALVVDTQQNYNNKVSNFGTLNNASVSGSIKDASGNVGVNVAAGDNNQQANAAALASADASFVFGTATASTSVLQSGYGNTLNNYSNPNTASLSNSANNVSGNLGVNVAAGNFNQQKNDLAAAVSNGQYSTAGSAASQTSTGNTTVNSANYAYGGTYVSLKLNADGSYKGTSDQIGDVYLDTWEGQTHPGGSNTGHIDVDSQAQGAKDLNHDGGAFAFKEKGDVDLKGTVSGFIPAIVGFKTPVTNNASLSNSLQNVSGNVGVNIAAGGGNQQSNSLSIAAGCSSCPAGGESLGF
Method: FIG. 15. Action of synthetic α-sheet peptides in the P. aeruginosa system. […] Error bars indicate standard deviation of the mean of at least three replicates. Significance values are p<0.05: *, p<0.01: **, p<0.001: ***.
Samples are aliquoted into 96 well plates and incubated in a plate reader at 37° C. with shaking every 5 min. As previously, the fluorescence of ThT monitors protein fibril formation in real time. Synthetic α-sheet peptides may also be added to the reaction to determine whether they inhibit FapC fibril formation, as in the case of AP90 (FIG. 15A).

E. coli UTI89 = assay: Bacterial growth and biofilm versus planktonic proportion; assay type: cell-based; conditions: UTI89 biofilm cultures
Excerpt: (§1) FIG. 12. […] Error bars indicate standard deviation of the mean of at least three replicates. Significance values are p<0.05: *, p<0.01: **, p<0.001: ***.
(§2) UTI89 biofilms were also cultivated in the presence of an unstructured peptide, P1, which retains a mixture of L- and D-amino acids but lacks the α-sheet secondary structure of AP193.

UTI89 WT biofilms = assay: Biofilm adherence to glass slides after washing; assay type: cell-based, E. coli; conditions: after gentle washing
Excerpt: as §1, §2

| Substance | Extracellular PSM amyloid fibril deposits by TEM [1] | FapC fibril formation (ThT) (FapC) | Bacterial killing / growth inhibition (E. coli UTI89) | Adherence of biofilm to glass slides (UTI89 WT biofilms) |
| --- | --- | --- | --- | --- |
| RGEmNlSwMNEYSGWtMnLkMGR (RGEMNLSWMNEYSGWTMNLKMGR; not fully specified (residues 4, 6, 8, 16, 18, 20); printed as RGEmNlSwMNEYSGWtMnLkMGR) [AP90] | amyloid fibrils could not be found | inhibits fibril formation |  |  |
| RGEmNyFwMNEYYGWtMnCkMGR (RGE[dM]N[dY]F[dW]MNEYYGW[dT]M[dN]C[dK]MGR) [AP193, hydrophobic AP90 derivative, variant to support different chemical coupling reactions] |  |  | does not kill bacteria or inhibit their growth | far less adherent to glass slides |
